Reference: PubChem BioAssay (NCI)
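Interpolation was linear, between the two tested concentrations surrounding the appropriate level; five concentrations were tested over 48 hours in 96-well plates. TGI: concentration producing complete growth inhibition.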

What was measured:
Assay in all cases: NCI-60 cell line screen, 48 h
SN12C renal = system: SN12C renal
HOP-62 NSCLC = system: HOP-62 NSCLC
SK-OV-3 ovarian = system: SK-OV-3 ovarian
MALME-3M melanoma = system: MALME-3M melanoma
HOP-92 NSCLC = system: HOP-92 NSCLC
TK-10 renal = system: TK-10 renal
KM12 colon = system: KM12 colon
SNB-75 CNS = system: SNB-75 CNS
NCI/ADR-RES ovarian = system: NCI/ADR-RES ovarian
OVCAR-5 ovarian = system: OVCAR-5 ovarian
HCT-116 colon = system: HCT-116 colon
EKVX NSCLC = system: EKVX NSCLC
HS 578T breast = system: HS 578T breast
COLO 205 colon = system: COLO 205 colon
RXF 393 renal = system: RXF 393 renal
IGROV1 ovarian = system: IGROV1 ovarian
NCI-H460 lung = system: NCI-H460 lung
PC-3 prostate = system: PC-3 prostate
SK-MEL-5 melanoma = system: SK-MEL-5 melanoma
HCT-15 colon = system: HCT-15 colon
K-562 leukemia = system: K-562 leukemia
MOLT-4 leukemia = system: MOLT-4 leukemia
HT29 colon = system: HT29 colon
M14 melanoma = system: M14 melanoma
NCI-H522 lung = system: NCI-H522 lung
UACC-257 melanoma = system: UACC-257 melanoma
HCC-2998 colon = system: HCC-2998 colon
SF-539 CNS = system: SF-539 CNS
SW-620 colon = system: SW-620 colon
U251 CNS = system: U251 CNS
BT-549 breast = system: BT-549 breast
786-0 renal = system: 786-0 renal
SR leukemia = system: SR leukemia
OVCAR-3 ovarian = system: OVCAR-3 ovarian
NCI-H226 lung = system: NCI-H226 lung
ACHN renal = system: ACHN renal
CCRF-CEM leukemia = system: CCRF-CEM leukemia
UO-31 renal = system: UO-31 renal
SK-MEL-28 melanoma = system: SK-MEL-28 melanoma
DU-145 prostate = system: DU-145 prostate
SNB-19 CNS = system: SNB-19 CNS
UACC-62 melanoma = system: UACC-62 melanoma
MDA-MB-231 breast = system: MDA-MB-231 breast
MDA-MB-435 = system: MDA-MB-435
A549 NSCLC = system: A549 NSCLC
NCI-H23 lung = system: NCI-H23 lung
T-47D breast = system: T-47D breast
SF-268 CNS = system: SF-268 CNS
CAKI-1 renal = system: CAKI-1 renal
MDA-N = system: MDA-N
MCF7 breast = system: MCF7 breast
SF-295 CNS = system: SF-295 CNS
OVCAR-4 ovarian = system: OVCAR-4 ovarian
OVCAR-8 ovarian = system: OVCAR-8 ovarian
HL-60(TB) leukemia = system: HL-60(TB) leukemia
LOX IMVI melanoma = system: LOX IMVI melanoma
RPMI-8226 leukemia = system: RPMI-8226 leukemia
A498 renal = system: A498 renal

CC(=O)Oc1ccc2c(c1)[nH]c1c3ccc(OC(C)=O)cc3oc(=O)c21
TGI (SN12C renal): > 100 µM | TGI (HOP-62 NSCLC): > 100 µM | TGI (SK-OV-3 ovarian): > 100 µM | TGI (MALME-3M melanoma): > 100 µM | TGI (HOP-92 NSCLC): > 100 µM | TGI (TK-10 renal): > 100 µM | TGI (KM12 colon): > 100 µM | TGI (SNB-75 CNS): > 100 µM | TGI (NCI/ADR-RES ovarian): > 100 µM | TGI (OVCAR-5 ovarian): > 100 µM | TGI (HCT-116 colon): 78.1 µM | TGI (EKVX NSCLC): 86.1 µM | TGI (HS 578T breast): > 100 µM | TGI (COLO 205 colon): > 100 µM | TGI (RXF 393 renal): 68.2 µM | TGI (IGROV1 ovarian): > 100 µM | TGI (NCI-H460 lung): > 100 µM | TGI (PC-3 prostate): > 100 µM | TGI (SK-MEL-5 melanoma): 68.9 µM | TGI (HCT-15 colon): > 100 µM | TGI (K-562 leukemia): > 100 µM | TGI (MOLT-4 leukemia): > 100 µM | TGI (HT29 colon): > 100 µM | TGI (M14 melanoma): > 100 µM | TGI (NCI-H522 lung): > 100 µM | TGI (UACC-257 melanoma): > 100 µM | TGI (HCC-2998 colon): 67.7 µM | TGI (SF-539 CNS): > 100 µM | TGI (SW-620 colon): > 100 µM | TGI (U251 CNS): > 100 µM | TGI (BT-549 breast): 68.2 µM | TGI (786-0 renal): > 100 µM | TGI (SR leukemia): 71.7 µM | TGI (OVCAR-3 ovarian): 71.9 µM | TGI (NCI-H226 lung): 76.5 µM | TGI (ACHN renal): 78.3 µM | TGI (CCRF-CEM leukemia): 98.8 µM | TGI (UO-31 renal): > 100 µM | TGI (SK-MEL-28 melanoma): > 100 µM | TGI (DU-145 prostate): > 100 µM | TGI (SNB-19 CNS): > 100 µM | TGI (UACC-62 melanoma): > 100 µM | TGI (MDA-MB-231 breast): 88.2 µM | TGI (MDA-MB-435): > 100 µM | TGI (A549 NSCLC): > 100 µM | TGI (NCI-H23 lung): > 100 µM | TGI (T-47D breast): 48.9 µM | TGI (SF-268 CNS): 75 µM | TGI (CAKI-1 renal): > 100 µM | TGI (MDA-N): > 100 µM | TGI (MCF7 breast): 90.4 µM | TGI (SF-295 CNS): > 100 µM | TGI (OVCAR-4 ovarian): > 100 µM | TGI (OVCAR-8 ovarian): > 100 µM

O=[N+]([O-])C(C(Cl)=C(Cl)Cl)=C(N1CCCCC1)N1CCCCC1
TGI (SN12C renal): > 100 µM | TGI (HOP-62 NSCLC): > 100 µM | TGI (SK-OV-3 ovarian): > 100 µM | TGI (MALME-3M melanoma): > 100 µM | TGI (TK-10 renal): > 100 µM | TGI (KM12 colon): > 100 µM | TGI (SNB-75 CNS): > 100 µM | TGI (NCI/ADR-RES ovarian): > 100 µM | TGI (HL-60(TB) leukemia): > 100 µM | TGI (OVCAR-5 ovarian): > 100 µM | TGI (HCT-116 colon): > 100 µM | TGI (EKVX NSCLC): > 100 µM | TGI (HS 578T breast): 70.8 µM | TGI (COLO 205 colon): > 100 µM | TGI (RXF 393 renal): > 100 µM | TGI (IGROV1 ovarian): > 100 µM | TGI (NCI-H460 lung): > 100 µM | TGI (PC-3 prostate): > 100 µM | TGI (SK-MEL-5 melanoma): > 100 µM | TGI (HCT-15 colon): > 100 µM | TGI (K-562 leukemia): > 100 µM | TGI (MOLT-4 leukemia): > 100 µM | TGI (LOX IMVI melanoma): > 100 µM | TGI (HT29 colon): > 100 µM | TGI (M14 melanoma): > 100 µM | TGI (UACC-257 melanoma): > 100 µM | TGI (HCC-2998 colon): > 100 µM | TGI (SF-539 CNS): > 100 µM | TGI (SW-620 colon): > 100 µM | TGI (U251 CNS): > 100 µM | TGI (BT-549 breast): > 100 µM | TGI (786-0 renal): > 100 µM | TGI (SR leukemia): > 100 µM | TGI (OVCAR-3 ovarian): > 100 µM | TGI (RPMI-8226 leukemia): > 100 µM | TGI (NCI-H226 lung): > 100 µM | TGI (ACHN renal): > 100 µM | TGI (CCRF-CEM leukemia): > 100 µM | TGI (UO-31 renal): > 100 µM | TGI (SK-MEL-28 melanoma): > 100 µM | TGI (DU-145 prostate): > 100 µM | TGI (SNB-19 CNS): > 100 µM | TGI (UACC-62 melanoma): > 100 µM | TGI (MDA-MB-231 breast): > 100 µM | TGI (A549 NSCLC): > 100 µM | TGI (NCI-H23 lung): > 100 µM | TGI (T-47D breast): > 100 µM | TGI (SF-268 CNS): > 100 µM | TGI (CAKI-1 renal): > 100 µM | TGI (MDA-N): > 100 µM | TGI (A498 renal): > 100 µM | TGI (MCF7 breast): > 100 µM | TGI (SF-295 CNS): > 100 µM | TGI (OVCAR-4 ovarian): > 100 µM | TGI (OVCAR-8 ovarian): > 100 µM
